{"source": "the supplement of paper PMC10307832", "assay_in_all_cases": "relative viability (nuclei count vs DMSO), 5 days (fraction); higher = more cells survive", "key": {"LCLC-103H": {"test_system": "LCLC-103H", "summary_of_the_method": "(§1)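 Lung cancer cell lines, seeded in 1536-well plates, were treated the following day by pin tool with a single drug or with five library-drug doses (not always all listed) in √10 steps on top of a fixed anchor-drug dose. Cells were fixed and nuclei stained in one step after 5 days, and nuclei were counted. Relative viability is the nuclei count for treated wells divided by that for vehicle wells, reported as medians of duplicate plates.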"}, "NCI-H1648": {"test_system": "NCI-H1648", "summary_of_the_method": "as §1"}, "HCC-15": {"test_system": "HCC-15", "summary_of_the_method": "as §1"}, "EKVX": {"test_system": "EKVX", "summary_of_the_method": "as §1"}, "NCI-H1755": {"test_system": "NCI-H1755", "summary_of_the_method": "as §1"}, "HCC-44": {"test_system": "HCC-44", "summary_of_the_method": "as §1"}, "NCI-H1395": {"test_system": "NCI-H1395", "summary_of_the_method": "as §1"}, "NCI-H1623": {"test_system": "NCI-H1623", "summary_of_the_method": "as §1"}, "UMC-11": {"test_system": "UMC-11", "summary_of_the_method": "as §1"}, "EBC-1": {"test_system": "EBC-1", "summary_of_the_method": "as §1"}, "IA-LM": {"test_system": "IA-LM", "summary_of_the_method": "as §1"}, "NCI-H1299": {"test_system": "NCI-H1299", "summary_of_the_method": "as §1"}, "A549": {"test_system": "A549", "summary_of_the_method": "as §1"}, "Calu-6": {"test_system": "Calu-6", "summary_of_the_method": "as §1"}, "NCI-H1703": {"test_system": "NCI-H1703", "summary_of_the_method": "as §1"}}}
{"compound": "CCN(CC)CCCCNc1ncc2cc(-c3cc(OC)cc(OC)c3)c(NC(=O)NC(C)(C)C)nc2n1", "note": "+ Cc1cc(Nc2cc(N3CCN(C)CC3)nc(Sc3ccc(NC(=O)C4CC4)cc3)n2)n[nH]1 [Tozasertib] (partner 0.1 µM)", "values": [{"measurement": "relative viability", "setting": "LCLC-103H; first compound 0.01 µM", "result": 0.588}, {"measurement": "relative viability", "setting": "LCLC-103H; first compound 0.03162 µM", "result": 0.486}, {"measurement": "relative viability", "setting": "LCLC-103H; first compound 0.1 µM", "result": 0.54}, {"measurement": "relative viability", "setting": "LCLC-103H; first compound 0.3162 µM", "result": 0.452}, {"measurement": "relative viability", "setting": "LCLC-103H; first compound 1 µM", "result": 0.31}, {"measurement": "relative viability", "setting": "NCI-H1648; first compound 0.01 µM", "result": 0.657}, {"measurement": "relative viability", "setting": "NCI-H1648; first compound 0.03162 µM", "result": 0.559}, {"measurement": "relative viability", "setting": "NCI-H1648; first compound 0.1 µM", "result": 0.406}, {"measurement": "relative viability", "setting": "NCI-H1648; first compound 0.3162 µM", "result": 0.4}, {"measurement": "relative viability", "setting": "NCI-H1648; first compound 1 µM", "result": 0.407}, {"measurement": "relative viability", "setting": "HCC-15; first compound 0.01 µM", "result": 0.45}, {"measurement": "relative viability", "setting": "HCC-15; first compound 0.03162 µM", "result": 0.311}, {"measurement": "relative viability", "setting": "HCC-15; first compound 0.1 µM", "result": 0.428}, {"measurement": "relative viability", "setting": "HCC-15; first compound 0.3162 µM", "result": 0.342}, {"measurement": "relative viability", "setting": "HCC-15; first compound 1 µM", "result": 0.247}, {"measurement": "relative viability", "setting": "EKVX; first compound 0.01 µM", "result": 0.475}, {"measurement": "relative viability", "setting": "EKVX; first compound 0.03162 µM", "result": 0.383}, {"measurement": "relative viability", "setting": "EKVX; first compound 0.1 µM", "result": 0.407}, {"measurement": "relative viability", "setting": "EKVX; first compound 0.3162 µM", "result": 0.558}, {"measurement": "relative viability", "setting": "EKVX; first compound 1 µM", "result": 0.366}, {"measurement": "relative viability", "setting": "NCI-H1755; first compound 0.01 µM", "result": 0.624}, {"measurement": "relative viability", "setting": "NCI-H1755; first compound 0.03162 µM", "result": 0.61}, {"measurement": "relative viability", "setting": "NCI-H1755; first compound 0.1 µM", "result": 0.607}, {"measurement": "relative viability", "setting": "NCI-H1755; first compound 0.3162 µM", "result": 0.622}, {"measurement": "relative viability", "setting": "NCI-H1755; first compound 1 µM", "result": 0.535}, {"measurement": "relative viability", "setting": "HCC-44; first compound 0.01 µM", "result": 1.1}, {"measurement": "relative viability", "setting": "HCC-44; first compound 0.03162 µM", "result": 1.07}, {"measurement": "relative viability", "setting": "HCC-44; first compound 0.1 µM", "result": 0.953}, {"measurement": "relative viability", "setting": "HCC-44; first compound 0.3162 µM", "result": 0.899}, {"measurement": "relative viability", "setting": "HCC-44; first compound 1 µM", "result": 0.85}, {"measurement": "relative viability", "setting": "NCI-H1395; first compound 0.01 µM", "result": 0.77}, {"measurement": "relative viability", "setting": "NCI-H1395; first compound 0.03162 µM", "result": 0.754}, {"measurement": "relative viability", "setting": "NCI-H1395; first compound 0.1 µM", "result": 0.785}, {"measurement": "relative viability", "setting": "NCI-H1395; first compound 0.3162 µM", "result": 0.695}, {"measurement": "relative viability", "setting": "NCI-H1395; first compound 1 µM", "result": 0.547}, {"measurement": "relative viability", "setting": "NCI-H1623; first compound 0.01 µM", "result": 0.67}, {"measurement": "relative viability", "setting": "NCI-H1623; first compound 0.03162 µM", "result": 0.454}, {"measurement": "relative viability", "setting": "NCI-H1623; first compound 0.1 µM", "result": 0.43}, {"measurement": "relative viability", "setting": "NCI-H1623; first compound 0.3162 µM", "result": 0.513}, {"measurement": "relative viability", "setting": "NCI-H1623; first compound 1 µM", "result": 0.416}, {"measurement": "relative viability", "setting": "UMC-11; first compound 0.01 µM", "result": 0.214}, {"measurement": "relative viability", "setting": "UMC-11; first compound 0.03162 µM", "result": 0.203}, {"measurement": "relative viability", "setting": "UMC-11; first compound 0.1 µM", "result": 0.204}, {"measurement": "relative viability", "setting": "UMC-11; first compound 0.3162 µM", "result": 0.195}, {"measurement": "relative viability", "setting": "UMC-11; first compound 1 µM", "result": 0.196}]}
{"compound": "COc1nc(C)cnc1NS(=O)(=O)c1cccnc1-c1ccc(-c2nnco2)cc1", "note": "[Zibotentan] + COc1cc2c(Oc3ccc(NC(=O)C4(C(=O)Nc5ccc(F)cc5)CC4)cc3F)ccnc2cc1OCCCN1CCOCC1 [Foretinib] (partner 0.25 µM)", "values": [{"measurement": "relative viability", "setting": "LCLC-103H; first compound 0.08 µM", "result": 0.928}, {"measurement": "relative viability", "setting": "LCLC-103H; first compound 0.253 µM", "result": 0.886}, {"measurement": "relative viability", "setting": "LCLC-103H; first compound 0.8 µM", "result": 0.797}, {"measurement": "relative viability", "setting": "LCLC-103H; first compound 2.53 µM", "result": 0.838}, {"measurement": "relative viability", "setting": "EBC-1; first compound 0.08 µM", "result": 0.0991}, {"measurement": "relative viability", "setting": "EBC-1; first compound 0.253 µM", "result": 0.0961}, {"measurement": "relative viability", "setting": "EBC-1; first compound 0.8 µM", "result": 0.103}, {"measurement": "relative viability", "setting": "EBC-1; first compound 2.53 µM", "result": 0.113}, {"measurement": "relative viability", "setting": "HCC-15; first compound 0.08 µM", "result": 1.05}, {"measurement": "relative viability", "setting": "HCC-15; first compound 0.8 µM", "result": 1.03}, {"measurement": "relative viability", "setting": "HCC-15; first compound 2.53 µM", "result": 1.05}, {"measurement": "relative viability", "setting": "IA-LM; first compound 0.08 µM", "result": 1.06}, {"measurement": "relative viability", "setting": "IA-LM; first compound 0.253 µM", "result": 1.15}, {"measurement": "relative viability", "setting": "IA-LM; first compound 0.8 µM", "result": 1.09}, {"measurement": "relative viability", "setting": "IA-LM; first compound 2.53 µM", "result": 1.3}, {"measurement": "relative viability", "setting": "NCI-H1299; first compound 0.08 µM", "result": 1.11}, {"measurement": "relative viability", "setting": "NCI-H1299; first compound 0.253 µM", "result": 1.05}, {"measurement": "relative viability", "setting": "NCI-H1299; first compound 0.8 µM", "result": 1.05}, {"measurement": "relative viability", "setting": "NCI-H1299; first compound 2.53 µM", "result": 1.13}, {"measurement": "relative viability", "setting": "EKVX; first compound 0.08 µM", "result": 0.892}, {"measurement": "relative viability", "setting": "EKVX; first compound 0.253 µM", "result": 0.762}, {"measurement": "relative viability", "setting": "EKVX; first compound 0.8 µM", "result": 1.11}, {"measurement": "relative viability", "setting": "EKVX; first compound 2.53 µM", "result": 0.875}, {"measurement": "relative viability", "setting": "NCI-H1755; first compound 0.08 µM", "result": 0.943}, {"measurement": "relative viability", "setting": "NCI-H1755; first compound 0.253 µM", "result": 0.897}, {"measurement": "relative viability", "setting": "NCI-H1755; first compound 0.8 µM", "result": 0.897}, {"measurement": "relative viability", "setting": "NCI-H1755; first compound 2.53 µM", "result": 0.929}, {"measurement": "relative viability", "setting": "A549; first compound 0.08 µM", "result": 1.02}, {"measurement": "relative viability", "setting": "A549; first compound 0.253 µM", "result": 0.916}, {"measurement": "relative viability", "setting": "A549; first compound 0.8 µM", "result": 1.1}, {"measurement": "relative viability", "setting": "A549; first compound 2.53 µM", "result": 1.1}, {"measurement": "relative viability", "setting": "Calu-6; first compound 0.08 µM", "result": 0.811}, {"measurement": "relative viability", "setting": "Calu-6; first compound 0.253 µM", "result": 0.947}, {"measurement": "relative viability", "setting": "Calu-6; first compound 0.8 µM", "result": 0.849}, {"measurement": "relative viability", "setting": "Calu-6; first compound 2.53 µM", "result": 0.895}, {"measurement": "relative viability", "setting": "NCI-H1703; first compound 0.08 µM", "result": 0.422}, {"measurement": "relative viability", "setting": "NCI-H1703; first compound 0.253 µM", "result": 0.347}, {"measurement": "relative viability", "setting": "NCI-H1703; first compound 0.8 µM", "result": 0.395}, {"measurement": "relative viability", "setting": "NCI-H1703; first compound 2.53 µM", "result": 0.314}, {"measurement": "relative viability", "setting": "NCI-H1395; first compound 0.08 µM", "result": 1.02}, {"measurement": "relative viability", "setting": "NCI-H1395; first compound 0.253 µM", "result": 1.07}, {"measurement": "relative viability", "setting": "NCI-H1395; first compound 0.8 µM", "result": 1.04}, {"measurement": "relative viability", "setting": "NCI-H1395; first compound 2.53 µM", "result": 0.941}, {"measurement": "relative viability", "setting": "NCI-H1623; first compound 0.08 µM", "result": 0.84}, {"measurement": "relative viability", "setting": "NCI-H1623; first compound 0.253 µM", "result": 0.765}, {"measurement": "relative viability", "setting": "NCI-H1623; first compound 0.8 µM", "result": 0.855}, {"measurement": "relative viability", "setting": "NCI-H1623; first compound 2.53 µM", "result": 0.771}, {"measurement": "relative viability", "setting": "UMC-11; first compound 0.08 µM", "result": 1.05}, {"measurement": "relative viability", "setting": "UMC-11; first compound 0.253 µM", "result": 0.92}, {"measurement": "relative viability", "setting": "UMC-11; first compound 0.8 µM", "result": 0.991}, {"measurement": "relative viability", "setting": "UMC-11; first compound 2.53 µM", "result": 1.04}]}
